One data set concerns Candida parapsilosis. Put plainly: Antifungal activity against Candida parapsilosis GIM2.190 assessed as fungal growth inhibition by NCCLS protocol based method. Format: functional. Conditions: Lodderomyces parapsilosis.
Data set [1] can be described thus: Stability in human plasma assessed as compound remaining measured at 120 mins by LC/MS-MS analysis. It counts as ADME, cell-free. The following applies: read-out: Stability.
A further data set deals with Cryptococcus neoformans. Put plainly: Antifungal activity against Cryptococcus neoformans CGMCC 2.3161 assessed as fungal growth inhibition by NCCLS protocol based method. Format: functional.
A further data set relates to Aspergillus fumigatus. Description: Antifungal activity against Aspergillus fumigatus CGMCC3.7795 assessed as fungal growth inhibition by NCCLS protocol based method. Format: functional.
Data set [2] can be described thus: Stability in human plasma assessed as compound remaining measured at 60 mins by LC/MS-MS analysis. Format: ADME, cell-free. The following applies: read-out: Stability.
The subject of the next data set is Candida tropicalis. Description: Antifungal activity against Candida tropicalis CGMCC 2.3739 assessed as fungal growth inhibition by NCCLS protocol based method. It counts as functional.
The subject of another data set is Nakaseomyces glabratus. Put plainly: Antifungal activity against Candida glabrata clinical isolate assessed as fungal growth inhibition by NCCLS protocol based method. It counts as functional.
The nature of data set [3]: Metabolic stability in human microsomes assessed as intrinsic clearance preincubated for 10 mins followed by NADPH addition and measured after 5 to 60 mins by LC-MS/MS analysis. The following applies: time 15-70 min. Format: ADME, Microsome.
Data set [4] in a line: Stability in human plasma assessed as half life measured at 120 mins by LC/MS-MS analysis. It counts as ADME, cell-free.
The subject of the next data set is Pichia kudriavzevii. Description: Antifungal activity against Candida krusei GIM2.1 assessed as fungal growth inhibition by NCCLS protocol based method. Format: functional.
A short description of data set [5]: Metabolic stability in human liver microsomes assessed as compound remaining preincubated for 10 mins followed by NADPH addition and measured at 60 mins by LC-MS/MS analysis. The following applies: time 70 min, read-out: Stability. It counts as ADME, Microsome. (Liver microsomes are a subcellular fraction often used to study metabolism.)
Data set [6] can be described thus: Metabolic stability in human liver microsomes assessed as half life preincubated for 10 mins followed by NADPH addition and measured after 5 to 60 mins by LC-MS/MS analysis. Format: ADME, Microsome. Conditions: time 15-70 min.
The subject of data set [7] is Candida albicans. Put plainly: Antifungal activity against Candida albicans ATCC SC5314 assessed as fungal growth inhibition by NCCLS protocol based method. Format: functional.
In data set [8] the test system is Candida albicans. Description: Antifungal activity against Candida albicans CPCC400616 assessed as fungal growth inhibition by NCCLS protocol based method. Format: functional.
The subject of data set [9] is Candida albicans. Description: Antibiofilm activity against FLC-resistant Candida albicans CPCC400616 assessed as assessed as inhibition of biofilm formation measured at 3 hrs by XTT reduction assay. Format: functional. Background: Formazan colour is commonly taken as a measure of viable cells.
Data set [10] concerns Candida albicans. Put plainly: Antibiofilm activity against FLC-resistant Candida albicans CPCC400616 assessed as assessed as inhibition of biofilm formation measured at 24 hrs by XTT reduction assay. It counts as functional.
The next data set concerns A549. Description: Cytotoxicity against human A549 cells assessed as inhibition of cell growth incubated for 4 hrs by MTT assay. Conditions: A549, 4 h. It counts as functional, cell-based.
The subject of data set [11] is Candida albicans. Put plainly: Antibiofilm activity against FLC-resistant Candida albicans CPCC400616 assessed as assessed as inhibition of biofilm formation measured at 18 hrs by XTT reduction assay. Format: functional.
A further data set relates to HepG2. Description: Cytotoxicity against human HepG2 cells assessed as inhibition of cell growth incubated for 4 hrs by MTT assay. The following applies: HepG2, 4 h. It counts as functional, cell-based.
Data set [12] is described as follows: Cytotoxicity against human HEK293T cells assessed as inhibition of cell growth incubated for 4 hrs by MTT assay. It counts as toxicity, cell-based, HEK-293T.
The test system of another data set is MCF7. Description: Cytotoxicity against human MCF7 cells assessed as inhibition of cell growth incubated for 4 hrs by MTT assay. Conditions: MCF7, 4 h. It counts as functional, cell-based.
Data set [13] concerns Candida albicans. Description: Antibiofilm activity against FLC-resistant Candida albicans CPCC400616 assessed as assessed as inhibition of biofilm formation measured at 6 hrs by XTT reduction assay. Format: functional.
In data set [14] the test system is Candida albicans. Description: Antifungal activity against FLC-resistant Candida albicans 103 assessed as fungal growth inhibition by NCCLS protocol based method. It counts as functional.
In data set [15] the test system is Candida albicans. Put plainly: Antifungal activity against FLC-resistant Candida albicans CaR assessed as fungal growth inhibition by NCCLS protocol based method. Format: functional.
Data set [16] deals with Candida albicans. Description: Antifungal activity against FLC-resistant Candida albicans 311 assessed as fungal growth inhibition by NCCLS protocol based method. It counts as functional.
The test system of data set [17] is Candida albicans. Put plainly: Antifungal activity against FLC-resistant Candida albicans 904 assessed as fungal growth inhibition by NCCLS protocol based method. Format: functional.
Data set [18] deals with Candida albicans. Put plainly: Fungicidal activity against Candida albicans CPCC400616 assessed as minimum fungicidal concentration incubated for 48 hrs. It counts as functional.
Data set [19] has as its system Candida albicans. Description: Antifungal activity against FLC-resistant Candida albicans 901 assessed as fungal growth inhibition by NCCLS protocol based method. Format: functional.
In data set [20] the test system is Candida albicans. Put plainly: […] for fungicidal activity against Candida albicans CPCC400616. It counts as functional.
Data set [21] has as its system Candida albicans. Description: Antifungal activity against FLC-resistant Candida albicans 100 assessed as fungal growth inhibition by NCCLS protocol based method. It counts as functional.
Data set [22] deals with Candida albicans. Description: Antifungal activity against FLC-resistant Candida albicans 632 assessed as fungal growth inhibition by NCCLS protocol based method. It counts as functional.
The test system of data set [23] is Candida albicans. Description: Fungicidal activity against Candida albicans CPCC400616 assessed as minimum inhibitory concentration incubated for 48 hrs. Format: functional.

In brackets after ≈: the same amount, converted by molar mass.

The term MIC denotes the lowest concentration that inhibits growth of the organism. Usually half-life stands for the time needed for the level to fall by half in the phase considered. As usually defined, the IC50 is the concentration that inhibits the measured activity by half. As a reminder, the MFC is the lowest tested concentration that kills the fungus rather than only halting it.

On to `c1ccc(-c2ccc(C3=NC(Cn4ccnc4)(c4ccccc4)CO3)s2)cc1` (stereo unspecified), for which the MIC with Candida parapsilosis worked out at 16 µg/mL (≈ 41.5 µM); in the data set on Cryptococcus neoformans it was 2 µg/mL (≈ 5.19 µM); with Aspergillus fumigatus, 8 µg/mL (≈ 20.8 µM); in the data set with Candida tropicalis it was 4 µg/mL (≈ 10.4 µM); in the data set on Nakaseomyces glabratus it was 16 µg/mL (≈ 41.5 µM); with Pichia kudriavzevii, 16 µg/mL (≈ 41.5 µM). Moreover, the MIC with Candida albicans [7] and with Candida albicans [8] was 1 µg/mL (≈ 2.59 µM) each time. Besides, in data set [1], the remaining at 2 h stood at 89.5%. The remaining at 1 h was found to be 93.1% in [2] and 41.3% in data set [5]. In addition, in data set [3], the CLint is 27.6 µL/min/mg. The figures for the half-life in [4] and in data set [6] were over 288 min and 50.2 min, respectively.
For `CCC(C)n1ncn(-c2ccc(N3CCN(c4ccc(OCC5COC(Cn6cncn6)(c6ccc(Cl)cc6Cl)O5)cc4)CC3)cc2)c1=O` (stereo unspecified) [ITRACONAZOLE], the minimal inhibitory concentration (MIC) is 0.125 µg/mL (≈ 0.177 µM) in the data set on Candida parapsilosis; 0.125 µg/mL (≈ 0.177 µM) in the data set on Cryptococcus neoformans; 0.125 µg/mL (≈ 0.177 µM) with Aspergillus fumigatus; 0.03 µg/mL (≈ 0.0425 µM) in the data set with Candida tropicalis; 0.125 µg/mL (≈ 0.177 µM) with Nakaseomyces glabratus; 0.125 µg/mL (≈ 0.177 µM) in the data set on Pichia kudriavzevii. Besides, the minimum inhibitory concentration (MIC) in the data set on Candida albicans [7] and with Candida albicans [8] was 0.03 µg/mL (≈ 0.0425 µM) in each case. Also, the MIC50 in the data set with Candida albicans [9] is 16 µg/mL (≈ 22.7 µM); in the data set with Candida albicans [10], over 64 µg/mL; in the data set with Candida albicans [11], over 64 µg/mL; with Candida albicans [13], 32 µg/mL (≈ 45.3 µM). Further, the IC50 with A549, in the data set on HepG2 and in the data set with MCF7 was over 50 µM throughout. Moreover, the IC50 at 4 h in data set [12] is over 50 µM.
For `Fc1ccc(C2(Cn3ccnc3)COC(c3ccc(-c4ccccc4)s3)=N2)cc1` (stereo unspecified), the MIC in the data set with Candida parapsilosis turned out to be 0.25 µg/mL (≈ 0.62 µM); in the data set on Candida albicans [14], 0.25 µg/mL (≈ 0.62 µM); in the data set on Candida albicans [15], 1 µg/mL (≈ 2.48 µM); in the data set with Cryptococcus neoformans, 0.5 µg/mL (≈ 1.24 µM); in the data set with Aspergillus fumigatus, 4 µg/mL (≈ 9.91 µM); in the data set on Candida albicans [16] it was 1 µg/mL (≈ 2.48 µM). Besides, the minimum inhibitory concentration (MIC) was determined as 0.25 µg/mL (≈ 0.62 µM) in the data set with Candida albicans [17]; 0.06 µg/mL (≈ 0.149 µM) in the data set with Candida tropicalis; 0.125 µg/mL (≈ 0.31 µM) with Nakaseomyces glabratus; 0.25 µg/mL (≈ 0.62 µM) in the data set with Candida albicans [19]; 0.125 µg/mL (≈ 0.31 µM) in the data set with Pichia kudriavzevii; 0.5 µg/mL (≈ 1.24 µM) in the data set on Candida albicans [21]. For the same compound, the minimal inhibitory concentration (MIC) was 1 µg/mL (≈ 2.48 µM) in the data set with Candida albicans [22], 0.06 µg/mL (≈ 0.149 µM) in the data set with Candida albicans [7], 0.06 µg/mL (≈ 0.149 µM) in the data set with Candida albicans [8] and 0.06 µg/mL (≈ 0.149 µM) in the data set on Candida albicans [23]. The MIC50 was found to be 0.25 µg/mL (≈ 0.62 µM) in the data set with Candida albicans [9], 16 µg/mL (≈ 39.7 µM) with Candida albicans [10], 4 µg/mL (≈ 9.91 µM) in the data set with Candida albicans [11] and 2 µg/mL (≈ 4.96 µM) in the data set with Candida albicans [13]. For the same compound, the IC50 is over 50 µM with A549, 10.5 µM in the data set with HepG2 and over 50 µM in the data set on MCF7. In addition, the minimum fungicidal concentration (MFC) with Candida albicans [18] was 0.5 µg/mL (≈ 1.24 µM). In data set [12], the concentration for half-maximal inhibition (IC50) at 4 h was 14.2 µM. For the same compound, the Ratio in the data set with Candida albicans [20] worked out at 8.

These data come from ChEMBL document CHEMBL5131399, “Broadening antifungal spectrum and improving metabolic stablity based on a scaffold strategy: Design, synthesis, and evaluation of novel 4-phenyl-4,5-dihydrooxazole derivatives as potent fungistatic and fungicidal reagents” (Eur J Med Chem, 2022).
